According to patent US10544143B2, “4-azaindole compounds” (BRISTOL-MYERS SQUIBB COMPANY, priority 2017, dated 2020):
Read-outs that look alike come from different tables or passages of the source.

Legend:
[1] = molecular target: human TLR7 (Homo sapiens (Human), UniProt Q9NYK1); experiment: TLR7 inhibition reporter assay (HEK-Blue SEAP); assay type: cell-based
[2] = molecular target: human TLR8 (Homo sapiens (Human), UniProt Q9NR97); experiment: TLR8 inhibition reporter assay (HEK-Blue SEAP); conditions: read-out: TLR8 IC50;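 note: SEAP driven by IFN-β minimal promoter carrying NF-κB and AP-1 sites, compounds dosed 0.05 nM to 50 µM for 22 h, inhibition scaled between agonist-plus-DMSO and reference-inhibitor wells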
[3] = molecular target: human TLR9 (Homo sapiens (Human), UniProt Q9NR96); experiment: TLR9 inhibition reporter assay (HEK-Blue SEAP); conditions: read-out: TLR9 IC50;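 note: SEAP driven by an IFN-β minimal promoter with NF-κB and AP-1 sites, read after 22 h, compounds dosed 0.05 nM–50 µM, inhibition scaled between agonist plus DMSO and reference-inhibitor wells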
[4] = HEK-Blue human TLR7 cells, gardiquimod 7.5 μM
[5] = HEK-Blue human TLR8 cells, R848 15.9 μM
[6] = HEK-Blue human TLR9 cells, ODN2006 5 nM
[7] = HEK-Blue cells overexpressing human TLR7, SEAP reporter, gardiquimod 7.5 μM
[8] = HEK-Blue cells overexpressing human TLR8, SEAP reporter, R848 15.9 μM
[9] = HEK-Blue cells overexpressing human TLR9, SEAP reporter, ODN2006 5 nM
[10] = HEK-Blue cells overexpressing human TLR7, gardiquimod 7.5 μM stimulation, SEAP reporter
[11] = HEK-Blue cells overexpressing human TLR8, R848 15.9 μM stimulation, SEAP reporter
[12] = HEK-Blue cells overexpressing human TLR9, ODN2006 5 nM stimulation, SEAP reporter

human TLR7, sequence (Q9NYK1 27-1049): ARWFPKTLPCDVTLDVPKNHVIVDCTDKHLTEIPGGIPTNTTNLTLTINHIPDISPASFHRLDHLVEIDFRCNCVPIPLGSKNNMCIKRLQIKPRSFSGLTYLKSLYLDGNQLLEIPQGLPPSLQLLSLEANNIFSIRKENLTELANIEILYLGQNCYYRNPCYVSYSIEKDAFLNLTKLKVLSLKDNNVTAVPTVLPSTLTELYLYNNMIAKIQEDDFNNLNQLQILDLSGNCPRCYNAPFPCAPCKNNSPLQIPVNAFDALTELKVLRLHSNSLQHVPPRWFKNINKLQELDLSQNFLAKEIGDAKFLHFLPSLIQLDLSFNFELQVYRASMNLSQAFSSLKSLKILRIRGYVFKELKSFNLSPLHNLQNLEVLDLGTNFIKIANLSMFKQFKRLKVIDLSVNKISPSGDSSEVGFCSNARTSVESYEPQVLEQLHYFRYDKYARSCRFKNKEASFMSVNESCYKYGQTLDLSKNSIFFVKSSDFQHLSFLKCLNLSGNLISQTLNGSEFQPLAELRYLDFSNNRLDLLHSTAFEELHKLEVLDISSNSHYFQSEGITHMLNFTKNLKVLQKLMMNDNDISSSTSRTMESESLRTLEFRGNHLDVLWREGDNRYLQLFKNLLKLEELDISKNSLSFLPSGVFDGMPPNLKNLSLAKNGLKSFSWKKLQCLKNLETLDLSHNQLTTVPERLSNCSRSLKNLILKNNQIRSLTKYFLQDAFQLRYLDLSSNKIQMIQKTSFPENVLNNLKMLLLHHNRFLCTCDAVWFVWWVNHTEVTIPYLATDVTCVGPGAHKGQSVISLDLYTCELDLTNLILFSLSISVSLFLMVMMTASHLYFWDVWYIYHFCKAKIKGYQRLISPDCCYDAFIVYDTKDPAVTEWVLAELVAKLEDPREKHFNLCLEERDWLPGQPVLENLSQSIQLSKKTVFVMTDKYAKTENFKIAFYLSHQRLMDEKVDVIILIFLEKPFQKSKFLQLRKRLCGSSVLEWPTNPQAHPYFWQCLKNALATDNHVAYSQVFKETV
human TLR8, sequence (Q9NR97 27-1041): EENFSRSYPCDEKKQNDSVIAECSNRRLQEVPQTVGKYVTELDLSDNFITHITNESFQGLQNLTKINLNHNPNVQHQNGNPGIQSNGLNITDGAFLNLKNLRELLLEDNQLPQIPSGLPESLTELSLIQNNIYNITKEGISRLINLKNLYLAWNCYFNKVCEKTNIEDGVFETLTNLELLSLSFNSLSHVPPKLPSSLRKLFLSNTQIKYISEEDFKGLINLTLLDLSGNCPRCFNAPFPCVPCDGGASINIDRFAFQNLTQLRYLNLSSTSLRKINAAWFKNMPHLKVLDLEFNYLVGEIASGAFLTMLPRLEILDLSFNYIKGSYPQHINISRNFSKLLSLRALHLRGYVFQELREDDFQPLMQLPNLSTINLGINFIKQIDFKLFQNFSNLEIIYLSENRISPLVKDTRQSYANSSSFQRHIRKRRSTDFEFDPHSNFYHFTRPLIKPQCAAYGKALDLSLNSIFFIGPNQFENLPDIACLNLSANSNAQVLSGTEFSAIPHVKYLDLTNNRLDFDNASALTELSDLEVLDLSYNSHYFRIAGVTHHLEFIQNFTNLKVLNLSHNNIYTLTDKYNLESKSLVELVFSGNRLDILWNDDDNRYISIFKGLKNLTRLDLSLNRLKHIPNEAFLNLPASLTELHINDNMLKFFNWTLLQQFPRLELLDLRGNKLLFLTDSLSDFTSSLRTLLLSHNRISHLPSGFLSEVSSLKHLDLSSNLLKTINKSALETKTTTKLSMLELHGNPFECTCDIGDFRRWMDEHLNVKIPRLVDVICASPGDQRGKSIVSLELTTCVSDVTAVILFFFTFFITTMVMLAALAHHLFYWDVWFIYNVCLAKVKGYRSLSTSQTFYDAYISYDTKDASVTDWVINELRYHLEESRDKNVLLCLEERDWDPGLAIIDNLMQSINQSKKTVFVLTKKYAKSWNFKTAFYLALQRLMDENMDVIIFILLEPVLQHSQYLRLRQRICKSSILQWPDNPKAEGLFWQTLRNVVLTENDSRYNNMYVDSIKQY
human TLR9, sequence (Q9NR96 26-1032): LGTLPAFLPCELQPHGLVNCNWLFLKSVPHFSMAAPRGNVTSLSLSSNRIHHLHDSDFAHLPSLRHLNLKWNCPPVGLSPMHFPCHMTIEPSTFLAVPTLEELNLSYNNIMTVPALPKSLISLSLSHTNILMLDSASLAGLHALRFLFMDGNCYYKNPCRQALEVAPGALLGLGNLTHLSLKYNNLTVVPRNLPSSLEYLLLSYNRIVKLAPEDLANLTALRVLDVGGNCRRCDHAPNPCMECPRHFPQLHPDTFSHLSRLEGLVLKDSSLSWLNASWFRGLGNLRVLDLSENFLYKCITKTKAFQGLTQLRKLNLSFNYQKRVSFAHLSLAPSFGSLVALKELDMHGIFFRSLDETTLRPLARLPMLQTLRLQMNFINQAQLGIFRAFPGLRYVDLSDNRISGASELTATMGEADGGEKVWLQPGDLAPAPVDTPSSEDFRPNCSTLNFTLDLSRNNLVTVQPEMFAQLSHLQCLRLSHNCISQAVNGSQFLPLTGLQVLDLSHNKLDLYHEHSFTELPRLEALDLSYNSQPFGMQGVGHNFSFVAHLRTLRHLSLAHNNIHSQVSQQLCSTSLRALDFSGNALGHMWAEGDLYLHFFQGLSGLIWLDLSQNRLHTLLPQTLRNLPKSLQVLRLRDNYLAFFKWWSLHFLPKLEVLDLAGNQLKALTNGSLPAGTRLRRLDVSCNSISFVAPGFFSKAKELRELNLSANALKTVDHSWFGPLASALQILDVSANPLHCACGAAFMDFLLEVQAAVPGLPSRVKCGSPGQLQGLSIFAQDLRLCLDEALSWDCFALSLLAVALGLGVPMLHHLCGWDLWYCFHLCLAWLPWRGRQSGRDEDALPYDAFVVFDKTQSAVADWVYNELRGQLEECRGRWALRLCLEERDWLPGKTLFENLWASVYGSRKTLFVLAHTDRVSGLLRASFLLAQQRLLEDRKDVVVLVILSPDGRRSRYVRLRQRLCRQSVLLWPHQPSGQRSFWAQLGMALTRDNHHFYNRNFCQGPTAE

SMILES	IC50 [1, 7] [nM]	IC50 [2, 8] [nM]	IC50 [3, 9] [nM]	IC50 [1, 10] [nM]	IC50 [2, 11] [nM]	IC50 [3, 12] [nM]	also measured
Cc1c(-c2[nH]c3ccc(N4C[C@@H](C)N(C(=O)CN(C)C)C[C@H]4C)nc3c2C(C)C)cn2ncnc2c1C [Example 796]	–	–	–	–	–	–	IC50 [1, 4]: 6 nM; IC50 [2, 5]: 15 nM; IC50 [3, 6]: 11300 nM
Cc1c(-c2[nH]c3ccc(N4CC5(C4)CN(C(C)C)C5)nc3c2C(C)C)cn2ncnc2c1C [Example 1003]	–	–	–	–	–	–	IC50 [1, 4]: 1.8 nM; IC50 [2, 5]: 3.7 nM; IC50 [3, 6]: 3160 nM
CNCC(=O)N1CCN(c2ccc3[nH]c(-c4cn5ncnc5c(C)c4C)c(C(C)C)c3n2)CC1 [Example 830]	–	–	–	–	–	–	IC50 [1, 4]: 0.62 nM; IC50 [2, 5]: 0.63 nM; IC50 [3, 6]: 7440 nM
Cc1c(-c2[nH]c3ccc(N4C[C@H](C)N(CCCS(C)(=O)=O)C[C@@H]4C)nc3c2C(C)C)cn2ncnc2c1C [Example 795]	–	–	–	–	–	–	IC50 [1, 4]: 12 nM; IC50 [2, 5]: 8.1 nM; IC50 [3, 6]: > 50000 nM
Cc1c(-c2[nH]c3ccc(N4C[C@H](C)N(CCC(N)=O)C[C@@H]4C)nc3c2C(C)C)cn2ncnc2c1C [Example 794]	–	–	–	–	–	–	IC50 [1, 4]: 1.4 nM; IC50 [2, 5]: 1.5 nM; IC50 [3, 6]: 18000 nM
Cc1cc(-c2[nH]c3ccc(C4CCNCC4)nc3c2C(C)C)nn(C)c1=O [Example 514]	38	44	7110	–	–	–	–
Cc1c(-c2[nH]c3ccc(N4C[C@@H](C)N(CC(N)=O)[C@@H](C)C4)nc3c2C(C)C)cn2ncnc2c1C [Example 867]	–	–	–	–	–	–	IC50 [1, 4]: 4.5 nM; IC50 [2, 5]: 11 nM; IC50 [3, 6]: > 50000 nM
COc1cc(-c2[nH]c3ccc(C4CN(Cc5c[nH]nn5)C4)nc3c2C(C)C)cn2ncnc12 [Example 651]	1.7	24	687	–	–	–	–
CC(C)c1c(-c2cn(C)c3ncccc23)[nH]c2ccc(CCC3CN(CC(=O)N(C)C)C3)nc12 [Example 683]	12	13	322	–	–	–	–
CCN(C)CC(=O)N1CCN(c2ccc3[nH]c(-c4cn5ncnc5c(C)c4C)c(C(C)C)c3n2)CC1 [Example 870]	–	–	–	–	–	–	IC50 [1, 4]: 0.56 nM; IC50 [2, 5]: 3.3 nM; IC50 [3, 6]: 14400 nM
COc1cc(-c2[nH]c3cc(C)c(C4CCC(NC5COC5)CC4)nc3c2C(C)C)cn2ncnc12 (stereo not drawn) [Example 309]	–	–	–	0.31	4.6	268	–
Cc1c(-c2[nH]c3ccc(N4CCN(C(=O)CN(C)C(C)(C)C)C[C@H]4C)nc3c2C(C)C)cn2ncnc2c1C [Example 934]	–	–	–	–	–	–	IC50 [1, 4]: 0.86 nM; IC50 [2, 5]: 8.6 nM; IC50 [3, 6]: 9750 nM
COc1cc(-c2[nH]c3cc(C)c(C(=O)N(C)CCN(C)C)nc3c2C(C)C)cn2ncnc12 [Example 732]	10	70	4830	–	–	–	–
COC1CN(C2CCC(c3ccc4[nH]c(-c5cn6ncnc6c(C)c5C)c(C(C)C)c4n3)CC2)C1 (stereo not drawn) [Example 1045]	–	–	–	–	–	–	IC50 [1, 4]: 4.8 nM; IC50 [2, 5]: 3.6 nM; IC50 [3, 6]: 3240 nM
COc1cc(-c2[nH]c3cc(C)c(C4CCC(NC5CCOC5)CC4)nc3c2C(C)C)cn2ncnc12 (stereo not drawn) [Example 328]	–	–	–	0.08	1.1	576	–
Cc1c(-c2[nH]c3ccc(N4C[C@H](C)N(C(=O)CCN(C)C)C[C@H]4C)nc3c2C(C)C)cn2ncnc2c1C [Example 840]	–	–	–	–	–	–	IC50 [1, 4]: 0.38 nM; IC50 [2, 5]: 1.5 nM; IC50 [3, 6]: 7400 nM

SMILES	IC50 [1, 7] [nM]	IC50 [2, 8] [nM]	IC50 [3, 9] [nM]	IC50 [1, 10] [nM]	IC50 [2, 11] [nM]	IC50 [3, 12] [nM]	also measured
Cc1c(-c2[nH]c3ccc(N4[C@@H]5CC[C@H]4CN(C(=O)CN4CCCC4)C5)nc3c2C(C)C)cn2ncnc2c1C [Example 921]	–	–	–	–	–	–	IC50 [1, 4]: 0.61 nM; IC50 [2, 5]: 3.4 nM; IC50 [3, 6]: 5270 nM
COc1cc(-c2[nH]c3ccc(C4CCC(N5CC6(CCO6)C5)CC4)nc3c2C(C)C)cn2ncnc12 (stereo not drawn) [Example 1075]	–	–	–	–	–	–	IC50 [1, 4]: 1.8 nM; IC50 [2, 5]: 11 nM; IC50 [3, 6]: 3350 nM
CNC1CCC(c2nc3c(C(C)C)c(-c4cc(OC)c5ncnn5c4)[nH]c3cc2F)CC1 (stereo not drawn) [Example 347]	–	–	–	0.27	1	2470	–
CCN(C)C1CCC(c2nc3c(C(C)C)c(-c4cc(OC)c5ncnn5c4)[nH]c3cc2C)CC1 (stereo not drawn) [Example 320]	–	–	–	1	22	1480	–
COc1cc(-c2[nH]c3ccc(C4CCC(NC(C)C)C4)nc3c2C(C)C)cn2ncnc12 (stereo not drawn) [Example 723]	0.99	2.4	4390	–	–	–	–
CNC1CCC(c2ccc3[nH]c(-c4cn(C)c5ncncc45)c(C(C)C)c3n2)CC1 (stereo not drawn) [Example 296]	–	–	–	0.59	6.8	600	–
CNC(=O)CN1CCC(c2ccc3[nH]c(-c4cc(C)c5ncnn5c4)c(C(C)C)c3n2)CC1 [Example 532]	0.58	4.4	3590	–	–	–	–
Cc1c(-c2[nH]c3ccc(N4C[C@@H]5CC4CN5)nc3c2C(C)C)cn2ncnc2c1C [Example 984]	–	–	–	–	–	–	IC50 [1, 4]: 1 nM; IC50 [2, 5]: 0.85 nM; IC50 [3, 6]: 3430 nM
COc1cc(-c2[nH]c3ccc(C4CCC(N5CC6(C5)CS(=O)(=O)C6)CC4)nc3c2C(C)C)cn2ncnc12 (stereo not drawn) [Example 248]	–	–	–	1.5	13	1780	–
COc1cc(-c2[nH]c3ccc(OCC4CCN(CC(=O)N(C)C)CC4)nc3c2C(C)C)cn2ncnc12 [Example 602, 2-(4-(((3-isopropyl-2-(8-methoxy-[1,2,4]triazolo[1,5-a]pyridin-6-yl)-1H-pyrrolo[3,2-b]pyridin-5-yl)oxy)methyl)piperidin-1-yl)-N,N-dimethylacetamide]	1.2	6.8	1430	–	–	–	–
COCCNCC(=O)N1CCN(c2ccc3[nH]c(-c4cn5ncnc5c(C)c4C)c(C(C)C)c3n2)CC1 [Example 159]	–	–	–	2.4	1	7740	–
COc1cc(-c2[nH]c3cc(F)c(C4CCN(CCS(C)(=O)=O)CC4)nc3c2C(C)C)cn2ncnc12 [Example 573]	0.99	9.1	3230	–	–	–	–
CC(C)c1c(-c2cn(C)c3ncncc23)[nH]c2ccc(C3CCC(NCCS(C)(=O)=O)CC3)nc12 (stereo not drawn) [Example 304]	–	–	–	0.53	1.8	1070	–
Cc1c(-c2[nH]c3ccc(N4CCN[C@H](C)C4)nc3c2C(C)C)cn2ncnc2c1C [Example 822]	–	–	–	–	–	–	IC50 [1, 4]: 1.1 nM; IC50 [2, 5]: 0.24 nM; IC50 [3, 6]: 6910 nM
COc1cc(-c2[nH]c3ccc(CCN4CCCCC4)nc3c2C(C)C)cn2ncnc12 [Example 682]	16	24	1050	–	–	–	–

Now from value to compound, other results behind:

IC50 [1, 7] [nM]	IC50 [2, 8] [nM]	IC50 [3, 9] [nM]	IC50 [1, 10] [nM]	IC50 [2, 11] [nM]	IC50 [3, 12] [nM]	SMILES	also measured
16	5.2	39200	–	–	–	Cc1c(-c2[nH]c3ccc(C4CCC(N(CCO)C5COC5)CC4)nc3c2C(C)C)cn2ncnc2c1C (stereo not drawn) [Example 444]	–
2.1	3.2	8300	–	–	–	Cc1c(-c2[nH]c3ccc(N4C[C@H](C)N(C(=O)CN(C)C)C[C@@H]4C)nc3c2C(C)C)cn2ncnc2c1C [Example 788]	–
–	–	–	5.3	7.2	35000	COc1cc(-c2[nH]c3ccc(N4CCN(C5COC5)CC4)nc3c2C(C)C)cn2ncnc12 [Example 93]	–
46	28	21600	–	–	–	Cc1c(-c2[nH]c3ccc(C4CC(N(C)CCS(C)(=O)=O)C4)nc3c2C(C)C)cn2ncnc2c1C (stereo not drawn) [Example 636]	–
4	1.9	3070	–	–	–	CNC(=O)CNC1CC(c2ccc3[nH]c(-c4cn5ncnc5c(C)c4C)c(C(C)C)c3n2)C1 (stereo not drawn) [Example 631]	–
–	–	–	3.7	10	3170	Cc1c(-c2[nH]c3ccc(N4CCC(N(C)Cc5ncccn5)CC4)nc3c2C(C)C)cn2ncnc2c1C [Example 78]	–
–	–	–	1920	600	> 50000	Cc1c(-c2[nH]c3ccc(N4CCN(CCN5CCOCC5)C(=O)C4)nc3c2C(C)C)cn2ncnc2c1C [Example 154]	–
–	–	–	1.2	1.2	12000	Cc1c(-c2[nH]c3ccc(N4CCN(S(=O)(=O)CCN(C)C)CC4)nc3c2C(C)C)cn2ncnc2c1C [Example 151]	–
–	–	–	1	2.3	790	Cc1c(-c2[nH]c3ccc(C4CCC(NCC(=O)N(C)C)CC4)nc3c2C(C)C)cn2ncnc2c1C (stereo not drawn) [Example 354]	–
6.7	18	3120	–	–	–	Cc1c(-c2[nH]c3ccc(C4CN(C(=O)CN(C)C)C4)nc3c2C(C)C)cn2ncnc2c1C [Example 650]	–
0.89	1.7	18200	–	–	–	Cc1c(-c2[nH]c3ccc(N4C[C@H](C)N(CCC(N)=O)[C@@H](C)C4)nc3c2C(C)C)cn2ncnc2c1C [Example 758]	–
–	–	–	1.3	0.72	1970	Cc1c(-c2[nH]c3ccc(N4CCC(N(C)CC5CC5)CC4)nc3c2C(C)C)cn2ncnc2c1C [Example 58]	–
–	–	–	37	14	> 50000	Cc1c(-c2[nH]c3ccc(N4CCNCC4=O)nc3c2C(C)C)cn2ncnc2c1C [Example 139]	–
–	–	–	1.2	4.7	5790	CC(C)c1c(-c2cn(C)c3ncncc23)[nH]c2ccc(N3CCN(C(=O)CCN(C)C)CC3)nc12 [Example 124]	–
–	–	–	2.3	0.96	8260	Cc1c(-c2[nH]c3ccc(N4CCN(C(=O)CNCCO)CC4)nc3c2C(C)C)cn2ncnc2c1C [Example 158]	–
–	–	–	> 3120	> 3120	> 50000	CNC1CN(c2ccc3[nH]c(-c4cn5ncnc5c(C)c4C)c(C(C)C)c3n2)C1 [Example 23]	–
–	–	–	3.5	0.58	> 50000	Cc1c(-c2[nH]c3ccc(N4CCCC(NCC5(S(C)(=O)=O)CC5)C4)nc3c2C(C)C)cn2ncnc2c1C (stereo not drawn) [Example 87]	–
